# Like-named read-outs stand apart in the source and are kept apart here. Marks after values point to notes of the source that are not given here.
# Assays:
# E. coli XL1 Blue [1] = assay: Growth inhibition of E. coli XL1 Blue, paper disc diffusion on LB solid medium; format: cell-based, Escherichia coli; conditions: for Growth Inhibition Zone: 24 h at 37 °C; for colonies of tolerant bacteria in the inhibition zone / bacterial growth inhibition (in words): paper disc diffusion; for bacterial growth inhibition (in words): Figure 1A
# Protocol: The antimicrobial activity of α,α-difluorophosphonate 9a and 10 was determined using the paper disc diffusion method and was compared with the antimicrobial activity of the non-fluorinated phosphonate and phosphate compounds 3, 4 et 6. The diameters of the inhibition zone are given with respect to the amount of inhibitor deposited on the disc (Table 2).
# (§1) The antimicrobial activity of hydroxamic acids 9b, 10a and 10b against E. coli XL1 Blue and fosmidomycin-resistant strain E. coli FosR [7], was determined using the paper disc diffusion method. LB agar plates (9 cm diameter) were inoculated with a suspension of bacteria (200 μL, mid-exponential phase). […] Growth inhibition was examined after 24 h incubation at 37 °C.
# E. coli H6-DXR [2] = target: T1, E. coli H6-DXR (Escherichia coli, UniProt P45568); assay: Inhibition of E. coli His-tagged DXR (photometric NADPH assay); format: biochemical
# T1 construct: His6 (H6)
# Protocol: The inhibition potency of α,α-difluorophosphonohydroxamic acid derivatives was characterized by their IC50 value that was determined as previously described. […] Residual activity was measured after initiating the enzymatic reaction by addition of DXP.
# The assays were performed at 37 °C in a 50 mM Tris/HCl buffer pH 7.5 containing 3 mM MgCl2 and 2 mM DTT. The concentrations of DXP and NADPH were 480 µM and 160 µM respectively. The decrease of absorbance at 340 nm due to NADPH oxidation was monitored to determine the initial rates. The retained values were the average of at least two measurements. The relative average deviation must be lower than 4%.
# Inhibitor concentrations in the stock solutions were verified by spectrophotometric phosphorus determination. The study compounds 9b and 10a, 10b were tested against E. coli DXR using a photometric assay that was described earlier. H-DXR was pre-incubated during 2 min in the presence of the inhibitors 9b, 10a and 10b at different concentrations and NADPH. DXP was then added to measure the residual activity. The inhibitory potential of the tested compounds was quantified by determining the IC50 values. They were obtained by plotting the percentage of residual activity versus the Log of inhibitor concentration.
# E. coli XL1 Blue [3] = conditions: cited from earlier work
# E. coli H6-DXR [4] = target: T1, E. coli H6-DXR; conditions: cited from earlier work
# [5] = test system: Plasmodium falciparum (K1 strain); set-up: method as in PMID 20568776; conditions: racemic mixtures, intraerythrocytic forms, ref [14]; cited from earlier work
# [6] = test system: fosmidomycin-resistant strain E. coli FosR; assay: Growth inhibition of fosmidomycin-resistant E. coli FosR, paper disc diffusion; format: cell-based, Escherichia coli; conditions: GlpT/UhpT transporters inoperative, Figure 1B
# Protocol: as §1
# T1 sequence (P45568 whole entry): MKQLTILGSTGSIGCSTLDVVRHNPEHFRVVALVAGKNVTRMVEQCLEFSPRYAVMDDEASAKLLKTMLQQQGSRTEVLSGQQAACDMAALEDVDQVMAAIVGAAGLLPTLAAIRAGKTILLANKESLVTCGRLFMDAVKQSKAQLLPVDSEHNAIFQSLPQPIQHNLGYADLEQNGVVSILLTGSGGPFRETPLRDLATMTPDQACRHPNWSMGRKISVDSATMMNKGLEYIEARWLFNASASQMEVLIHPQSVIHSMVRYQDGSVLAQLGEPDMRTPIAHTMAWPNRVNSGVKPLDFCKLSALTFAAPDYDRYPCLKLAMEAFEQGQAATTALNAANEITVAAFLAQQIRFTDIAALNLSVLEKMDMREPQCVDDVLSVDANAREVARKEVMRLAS
smiles,measurement,setting,value
"O=CN(O)CCCP(=O)(O)O [Compound 3a, fosmidomycin]",Growth Inhibition Zone,E. coli XL1 Blue [1]; 2 nmoles/disc,35 mm
same,colonies of tolerant bacteria in the inhibition zone,E. coli XL1 Blue [1],colonies of tolerant bacteria
"CC(=O)N(O)CCCP(=O)(O)O [Compound 3b, FR-900098]",IC50,E. coli H6-DXR [2],0.004 µM
same,Growth Inhibition Zone,"E. coli XL1 Blue [3]; 2 nmoles/disc, ref [9]",32 * mm
O=C(CCCP(=O)(O)O)NO [Compound 4a],Growth Inhibition Zone,"E. coli XL1 Blue [3]; 400 nmoles/disc, ref [8]",12 ** mm
same,IC50,E. coli H6-DXR [4]; ref [8],0.18 µM
CN(O)C(=O)CCCP(=O)(O)O [Compound 4b],Growth Inhibition Zone,"E. coli XL1 Blue [3]; 80 nmoles/disc, ref [8]",30 ** mm
"O=CN(O)CCOP(=O)(O)O [Compound 5a, fosfoxacin]",IC50,E. coli H6-DXR [4]; ref [9],0.342 µM
CC(=O)N(O)CCOP(=O)(O)O [Compound 5b],IC50,E. coli H6-DXR [4]; ref [9],0.077 µM
O=C(CCOP(=O)(O)O)NO [Compound 6a],Growth Inhibition Zone,"E. coli XL1 Blue [3]; 400 nmoles/disc, ref [9]",<10 * mm
same,IC50,E. coli H6-DXR [4]; ref [9],2.6 µM
CN(O)C(=O)CCOP(=O)(O)O [Compound 6b],Growth Inhibition Zone,"E. coli XL1 Blue [3]; 160 nmoles/disc, ref [9]",20 * mm
same,IC50,E. coli H6-DXR [4]; ref [9],0.046 µM
CC(=O)N(O)CCC(F)P(=O)(O)O (stereo not drawn) [Compound 7],activity compared with parent compounds fosmidomycin and 4b,[5],more active
CN(O)C(=O)CCC(F)P(=O)(O)O (stereo not drawn) [Compound 8],activity compared with parent compounds fosmidomycin and 4b,[5],more active
"CC(=O)N(O)CCC(F)(F)P(=O)(O)O [Compound 9b, (1,1-Difluoro-3-(N-hydroxyacetamido)propyl)phosphonic acid]",IC50,E. coli H6-DXR [2],0.009 µM
same,bacterial growth inhibition (in words),[6],No growth inhibition
same,Growth Inhibition Zone,E. coli XL1 Blue [1]; 2 nmoles/disc,15 mm
same,colonies of tolerant bacteria in the inhibition zone,E. coli XL1 Blue [1],did not appear
same,bacterial growth inhibition (in words),E. coli XL1 Blue [1],quite effective to inhibit bacterial growth
"O=C(CCC(F)(F)P(=O)(O)O)NO [Compound 10a, (1,1-Difluoro-4-(hydroxyamino)-4-oxobutyl)phosphonic acid]",IC50,E. coli H6-DXR [2],4.6 µM
same,fold less efficient than N-methylated analogue 10b,E. coli H6-DXR [2]; ratio of IC50 values on E. coli DXR,280
same,bacterial growth inhibition (in words),E. coli XL1 Blue [1],no inhibition was observed
"CN(O)C(=O)CCC(F)(F)P(=O)(O)O [Compound 10b, (1,1-Difluoro-4-(hydroxy(methyl)amino)-4-oxobutyl)phosphonic acid]",IC50,E. coli H6-DXR [2],0.017 µM
same,Growth Inhibition Zone,E. coli XL1 Blue [1]; 1.5 nmoles/disc,20 mm
same,colonies of tolerant bacteria in the inhibition zone,E. coli XL1 Blue [1],did not appear
same,bacterial growth inhibition (in words),E. coli XL1 Blue [1],quite effective to inhibit bacterial growth

# From publication PMC8397956 (Molecules, 2021)
